According to patent US8067589B2, “Heterocyclic compounds useful in treating diseases and conditions” (Pfizer Inc, priority 2007, dated 2011):

The compounds below were run against human recombinant H-PGDS (Homo sapiens, UniProt O60760) (assay: Fluoresecence Intensity h-PGDSTBA Enzyme Assay). Settings: 5.0 μM PGH2, 2.5 mM L-Glutathione, 10 min preincubation, 4-parameter fit, highest inhibitor concentration typically 1 μM.
human recombinant H-PGDS, sequence (O60760 whole entry): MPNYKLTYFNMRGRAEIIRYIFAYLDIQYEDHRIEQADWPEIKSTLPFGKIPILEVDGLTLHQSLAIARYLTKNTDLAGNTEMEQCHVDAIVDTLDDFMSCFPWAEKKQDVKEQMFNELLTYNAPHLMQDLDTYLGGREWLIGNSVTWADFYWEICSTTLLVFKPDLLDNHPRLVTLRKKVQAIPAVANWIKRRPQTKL

IC50 [nM] | Compound
0.275 | 2-Phenyl-N-[1-(2,2,2- trifluoroethyl) piperidin-4-yl] pyrimidine-5- carboxamide [Example 9]

Same assay, conditions: IC50, 5.0 μM PGH2, 2.5 mM L-Glutathione, 10 min preincubation, 4-parameter fit, highest inhibitor concentration typically 1 μM

Compound | IC50 [nM]
O=C(NC1CCN(C(COc2ccccc2)c2ccccc2)CC1)c1cnc(-c2cccc(F)c2)nc1 (stereo not drawn) [Example 38, 2-(3-Fluorophenyl)-N-[1-(2-phenoxy-1-phenylethyl)piperidin-4-yl]pyrimidine-5-carboxamide] | 6.71
O=C(NC1CCN(CC(F)(F)F)CC1)c1cnc(-c2ccccc2)nc1O [Example 22, 4-Hydroxy-2-phenyl-N-[1-(2,2,2-trifluoroethyl)piperidin-4-yl] pyrimidine-5-carboxamide] | ≥ 1000
Cc1nc(-c2ccccc2)ncc1C(=O)NC1CCN(Cc2ccccc2)CC1 [Example 2, N-(1-Benzylpiperidin-4-yl)-4-methyl-2-phenylpyrimidine-5-carboxamide] | 67.4
O=C(NC1CCN(Cc2ccccc2)CC1)c1cnc(-c2ccccc2)nc1 [Example 12, N-(1-Benzylpiperidin-4-yl)-2-phenylpyrimidine-5-carboxamide] | 0.428
O=C(NC1CCN(C(COc2c(F)cc(F)cc2F)c2ccccc2)CC1)c1cnc(-c2cccc(F)c2)nc1 (stereo not drawn) [Example 32, 2-(3-Fluorophenyl)-N-{1-[1-phenyl-2-(2,4,6-trifluorophenoxy)ethyl]piperidin-4-yl}pyrimidine-5-carboxamide] | 8.91
CC(C)(C)OC(=O)N1CCC(NC(=O)c2cnc(-c3ccccc3)nc2O)CC1 [Example 20, tert-Butyl 4-{[(4-hydroxy-2-phenyl-pyrimidin-5-yl)carbonyl]amino}piperidine-1-carboxylate] | ≥ 1000

The remaining lines, values ahead:

IC50 [nM] | Compound
1.18 | O=C(NC1CCN(Cc2cccc(Cl)c2)C1=O)c1cnc(-c2cccc(F)c2)nc1 (stereo not drawn) [Example 83, N-[1-(3-Chlorobenzyl)-2-oxopyrrolidin-3-yl]-2-(3-fluorophenyl)pyrimidine-5-carboxamide]
18.3 | O=C(NC1CCN(c2ccc(C(=O)N3CCOCC3)cn2)CC1)c1cnc(-c2cc(F)ccc2F)nc1 [Example 75, 2-(2,5-Difluorophenyl)-N-{1-[5-(morpholin-4-ylcarbonyl)pyridin-2-yl]piperidin-4-yl}pyrimidine-5-carboxamide]
6.26 | O=C(NC1CCN(C(COc2ccc(F)c(F)c2)c2ccccc2)CC1)c1cnc(-c2cccc(F)c2)nc1 (stereo not drawn) [Example 49, N-{1-[2-(3,4-Difluorophenoxy)-1-phenylethyl]piperidin-4-yl}-2-(3-fluorophenyl)pyrimidine-5-carboxamide]
0.219 | O=C(NC1CCN(c2ncc3c(n2)CCOC3)C1)c1cnc(-c2cccc(F)c2)nc1 (stereo not drawn) [Example 81, N-[1-(7,8-Dihydro-5H-pyrano[4,3-d]pyrimidin-2-yl)pyrrolidin-3-yl]-2-(3-fluorophenyl)pyrimidine-5-carboxamide]
1.41 | CC(C)(C)OC(=O)N1C[C@H](O)[C@H](NC(=O)c2cnc(-c3cccc(F)c3)nc2)C1 (relative stereo) [Example 94, cis-tert-Butyl 3-(2-(3-fluorophenyl)pyrimidine-5-carboxamido)-4-hydroxypyrrolidine-1-carboxylate]
2.34 | O=C(NC1CCN(Cc2c(F)ccc(F)c2Cl)C1=O)c1cnc(-c2cccc(F)c2)nc1 (stereo not drawn) [Example 85, N-[1-(2-Chloro-3,6-difluorobenzyl)-2-oxopyrrolidin-3-yl]-2-(3-fluorophenyl)pyrimidine-5-carboxamide]
2.98 | CC(C)(C)C(=O)N1CC(NC(=O)c2cnc(-c3cccc(F)c3)nc2)C1 [Example 106, N-[1-(2,2-Dimethylpropanoyl)azetidin-3-yl]-2-(3-fluorophenyl)pyrimidine-5-carboxamide]
0.335 | O=C(NC1CCN(Cc2cccc(F)c2)CC1)c1cnc(-c2cccc(F)c2)nc1 [Example 65, N-[1-(3-Fluorobenzyl)piperidin-4-yl]-2-(3-fluorophenyl)pyrimidine-5-carboxamide]
